The values that follow come from patent US4521406A, “Antitumor agent” (priority 1980, dated 1985).

Data set [1] has as its system Glioblastoma cancer cells. The experiment in a line: Glioblastoma transplanted into the brain of rats, survival (Experimental Example 6). As to conditions: 5-fluorocytosine 4 ml (10 mg/ml) i.p. every other day; 0.02 ml cytosinedeaminase (1 IU/ml) or PBS to transplantation site.
In data set [2] the test system is tumor. As to conditions: general statement; cited from earlier work.
Another data set concerns human Glioblastoma. The experiment in a line: Morphological changes of human Glioblastoma (Experimental Example 4). It is filed as cell-based. As to conditions: 50 μg/ml.
The subject of data set [3] is tumor. The experiment in a line: General statements on antitumor activity. As to conditions: applicant's summary of Experimental Examples 1 to 6.
For a further data set, the system named is HeLa cells. Kind of data set: Growth inhibition of HeLa cells (Experimental Example 1). As to conditions: for number of cells: drug used alone (control).
For data set [4] the following is noted: general statement; cited from earlier work.

“Also recorded” adds a separate entry of the source.

Regarding `Nc1nc(=O)[nH]cc1F` [5-fluorocytosine], in data set [1], the “Average days of survival” value came to 32 days. In the data set on tumor [2], the antitumor activity result was “no antitumor activity”. Besides, in the data set on human Glioblastoma, the morphological changes result is “morphological changes such as the disintegration of the cytoplasm and the deformation of the nucleus were evidently noted”. For the same compound, the “antitumor activity of the individual agents / of combined use” value in the data set on tumor [3] is “neither 5-fluorocytosine nor cytosinedeaminase has antitumor activity”. Moreover, the number of cells is 73 ×10^-4 cells/ml with HeLa cells (2 days elapsed, 24 h contact); 120 ×10^-4 cells/ml in the data set on HeLa cells (4 days elapsed, 24 h contact); 205 ×10^-4 cells/ml in the data set on HeLa cells (6 days elapsed, 24 h contact); 29 ×10^-4 cells/ml with HeLa cells (day 0, before 24 h treatment). Moreover, the “antitumor activity when used singly” value in the data set on HeLa cells (HeLa cells, used alone, result in words) is reported as “do not have any antitumor activity”.
As for `O=c1[nH]cc(F)c(=O)[nH]1` [5-fluorouracil], the antitumor activity entry in the data set with tumor [2] is “intense antitumor activity; also recorded: effective against solid tumors”. Also, the toxicity result in data set [4] is “intense toxicity in oral and intravenous administrations”.
In the case of `O=c1[nH]c(=O)n(C2CCCO2)cc1F` (stereo not drawn) [tetrahydrofuryl 5-fluorouracil], the toxicity result in data set [4] was “low toxicity”.
